Test results reported in patent US20240287104A1, “NUCLIDE LABELLED H-TETRAZINES AND USE THEREOF FOR PET AND SPECT PRETARGETED IMAGING AND RADIONUCLIDE THERAPY” (RIGSHOSPITALET, priority 2020, published 2024).

Tests used:
[1] = Stability in phosphate-buffered saline (PBS) by analytical HPLC; type: physicochemical; conditions: 12 h at 37° C.; for Stability in PBS (degradation): analytical HPLC
Description: The in vitro stability of UB108 and UB137 was assessed by analytical HPLC in Phosphate-buffered saline (PBS), Example 13 for UB108. […] Consequently, the organotin precursors were synthesized with an unoptimized synthetic strategy (FIG. 6, Examples 101 and 110). Radiolabeling succeeded in a one-pot, two step sequence with a RCY (d.c.) of approx. 10% and an overall synthesis time of ca. 90 minutes including synthesis, separation and formulation steps. An activity yield of 636 MBq starting from 11 GBq fluoride-18, and RCP of 98% at EOS was observed (FIGS. 6 and 11). UB137 could be labeled with similar results (FIGS. 6 and 7). The tetrazine ligation of ^18F-UB108 with s-TCO occurred rapidly, forming ligation products after click reaction (FIG. 11). Stability evaluation was completed for the formulated compound ^18F-UB108 in PBS at room temperature. […] UB137 could be labeled with similar results.
The shelf stability of UB-108 was assessed in phosphate-buffered saline (PBS) by analytical-HPLC. […] Consequently, the stannane precursor was synthesized in 4 steps (example 98-101 Radiolabeling succeeded in a one-pot, two-step sequence with a RCY (d.c.) of 11±3% (n=4) and an overall synthesis time of ca. 90 minutes including synthesis, separation and formulation. [^18F]-UB108 was obtained with an Am of 134±22 GBq/μmol (d.c.), a RCP of ≥99% (n=4) and an activity yield of 600-700 MBq (EOS) starting from ˜12 GBq fluoride-18. [^18F]-UB108 was stable in PBS at room temperature for minimum 4 h and rapidly reacted with TCO-PNP carbonate (23) as confirmed by radio-HPLC. Residual amounts of Cu and Sn in the final formulated solution were analyzed by ICP-MS and found to be well below the allowed limits specified in the ICH Guidelines (41-60 and 2.3-3.0 μg/L vs. 300 and 600 μg/day, respectively).

[2] = tested on: CC49-TCO pretargeted LS174T tumor xenografts; experiment: Blocking experiments with [111In]Q (Example 126, FIG. 3); type: in vivo, nude BALB/c mice; conditions: FIG. 3, cold 19F-Tz 2 h before [111In]Q
Description: In this respect, we designed two highly reactive Tzs, which allowed ^18F-labeling and respective introduction of polar groups (FIG. 4-8). UB137 and UB108 were synthesized in sufficient yields via a Pinner-like synthesis as described in Example 97 and 106 and their ability to be used in pretargeted imaging were evaluated. The results were compared with the performance of compounds UB-65 and RGV-52 (FIG. 3). Efficiency in vivo was tested in an ex vivo screening assay lately published by our group and is inspired by traditional receptor blocking studies. In short, tumour-bearing mice are injected with a validated TCO-modified pretargeting vector 72 h before a test ^19F-Tz is administered. Subsequently after 2 hours, a pretargeted established ^111In-DOTA-Tz (Q)[6] is administered to the same mouse. […] In this manner, the blocking ability of the cold ^19F-Tz can be evaluated. […]
All animal studies were approved by the Danish Animal Welfare Council, ministry of Justice. […] Tumors were measured using a caliper and the volume calculated using the formula volume=½(length×width^2).
These blocking experiments were made using the method described in Example 125. […] All tissues were weighted and the radioactivity measured in a gamma counter (Wizard2, Perkin Elmer) and data was corrected for decay, tissue weight and injected amount of radioactivity. […]

[3] = Second-order rate constants by stopped-flow spectrophotometry, unsubstituted TCO in 1,4-dioxane at 25° C.; type: physicochemical; conditions: value of the Tz-scaffold: representative tetrazine with unsubstituted TCO, n ≥ 4
Description: Reaction kinetics of the Tz-derivatives were determined by pseudo-first order measurements in dioxane at 25.0±0.1° C. or PBS at 27.0±0.1° ° C. in a SX20 stopped flow photometer (Applied Photophysics). The pseudo first order rate constant was determined by linearization of the decay curve followed by linear fitting. The second order rate constant was calculated from the pseudo-first order rate constant.
A structurally diverse library of 45 Tz-derivatives was prepared (FIG. 15), covering a wide spectrum of physicochemical properties, in particular calculated TPSAs between 60-350 Å2 and different lipophilicities, with calculated log D7.4 values (c log D7.4) ranging from approximately −7.0 to 2.5 (Table 5). […] The distribution coefficient at physiological pH (log D7.4) and TPSA were calculated using the software Chemicalize. Tetrazines conjugated to DOTA were calculated with chelated trivalent cations, Tzs with other chelators with bivalent cations. Second-order rate constants for the Tz scaffolds A-L were determined by stopped-flow spectrophotometry (n≥4), monitoring the reaction of representative tetrazines with unsubstituted trans-cyclooctene (TCO) at 25° C. in 1,4-dioxane, and with TCO-PEG4 (modified TCO-5ax-OH, ‘minor-TCO’) in Dulbecco's phosphate buffered saline (DBPS) at 37° C. n≥3.

[4] = tested on: CC49-TCO pretargeted LS174T colon carcinoma xenografts; experiment: Pretargeted blocking assay with [111In]Q (Example 140); type: in vivo, BALB/c mice; conditions: for Blocking effect: unlabeled Tz i.v. 72 h after CC49-TCO and 1 h before [111In]Q, change in tumor uptake 22 h p.i., normalized to unblocked group
Description: All animal studies were approved by the Danish Animal Welfare Council, ministry of Justice. Five weeks old female nude BALB/c mice (Charles River, Sulzfeld, Germany) were allowed to acclimatize for one week with access to water and chow ad libitum. Human colon cancer cell line (LS174T; obtained from ATCC) was cultured in minimum essential medium (MEM) supplemented with 10% fetal bovine serum, 1% L-Glutamine, 1% Sodium pyruvate, 1% non-essential amino acids, and 1% penicillin-streptomycin at 37° C. and 5% CO2. Cells were harvested by trypsination at a confluence of 70-90% and subcutaneous tumors were established in the left flank of the 6 weeks old animals by inoculation of ˜5×10^6 LS174T cells resuspended in sterile PBS (100 μL) and allowed to grow for 7-10 days. Tumors were measured using a caliper and the volume calculated using the formula volume=½(length×width^2).
The assay was inspired by receptor blocking experiments and based on the pretargeted imaging approach reported by Rossin et al. An ^111In-labeled Tz [^111In]Q was used in pair with TCO-modified CC49, a non-internalizing mAb that targets the tumor-associated glycoprotein 72 (TAG72), as a benchmark model for the in vivo ligation.
The TCO-modification of CC49 was carried out according to Rossin et al. To study the in vivo ligation performance of Tz-derivatives 1a-45a, BALB/c mice bearing LS174T colon carcinoma xenografts were injected intravenously (i.v.) with CC49-TCO 72 h prior to i.v. injection of the unlabeled Tz, followed by administration of [^111In]Q 1 h later. The animals were euthanized after 22 h and an ex vivo biodistribution was carried out to quantify the tumor uptake of [111 In]Q (FIG. 15). The efficiency of the in vivo ligation of the unlabeled Tz can thus be correlated to a reduced uptake of [111 In]Q (FIG. 15). As a control, blocking was performed using the non-radioactive precursor of [^111In]Q, which blocked ≥99% of the [^111In]Q tumor uptake. A group of CC49-TCO pretreated mice were injected exclusively with [^111In]Q (without blocking) and the determined uptake was used as reference value (100%) to normalize the observed changes in tumor uptake in blocking experiments.
All of these probes include H-phenyl-, pyrimidyl-phenyl-, or bis(pyridyl)-Tz-scaffolds with second-order rate constants for the reaction with TCO of >70 M 1 s 1 (1,4-dioxane, 25° C.) or of >39,000 M 1 s 1 (DPBS, 37° C.) (cf. Table 5). Next, potential correlations between the blocking effect, the c log D7.4 and the TPSA, as well as IEDDA reactivity were investigated. […] However, a distinct relationship between c log D7.4 values and the blocking effect was evidently observed when comparing Tz-derivatives with similar IEDDA reactivity (FIG. 16C, 16D). For all Tz-scaffolds a Pearson's correlation coefficient >0.78 was found. […] The blocking effect of non-radiolabeled Tz was determined as the change in tumor uptake of [111 In]Q 22 h p.i. Each Tz was administered 1 h prior to [111 In]Q and the uptake normalized to a group of animals were no blocking was performed (control). Data represent mean from n=3 mice/group. Correlation of blocking effect and c log D7.4 for Tz-derivatives with similar IEDDA reactivity (as shown in FIGS. 16C and D) where data was fitted to exponential growth equation Y=Y0 ekx (dotted line). The statistical analysis of the correlation between tumor uptake and c log D7.4 for the different groups of Tz-derivatives (shown in Table 7) was obtained by Pearson's correlation coefficient (r) which describes the goodness of fit between the blocking effect and c log D7.4. Notes: a Reaction of representative Tz with unsubstituted TCO; “Reaction of representative Tz with TCO-PEG4;” Measured for Tz-scaffold A only; n.d.=not determined.

[5] = Second-order rate constants by stopped-flow spectrophotometry, TCO-PEG4 in DPBS at 37° C.; type: physicochemical; conditions: value of the Tz-scaffold: representative tetrazine with TCO-PEG4, n ≥ 4
Description: A structurally diverse library of 45 Tz-derivatives was prepared (FIG. 15), covering a wide spectrum of physicochemical properties, in particular calculated TPSAs between 60-350 Å2 and different lipophilicities, with calculated log D7.4 values (c log D7.4) ranging from approximately −7.0 to 2.5 (Table 5). The Tz-scaffolds (A-L) include mono- and disubstituted methyl-, phenyl-, 2-pyrimidyl-, and 2-pyridyl-substituted Tz-derivatives with second-order rate constants for the reaction with TCO ranging from 1.4 to 230 M^−1 s^−1 in 1,4-dioxane at 25° C., and from 1,100 to 73,000 M^−1 s^−1 in buffered aqueous solution at 37° C. […] Several compounds were obtained as copper(II) complexes (for details see the Supporting Information), which was taken into account in the calculation of c log D7.4 and TPSA. The distribution coefficient at physiological pH (log D7.4) and TPSA were calculated using the software Chemicalize. Tetrazines conjugated to DOTA were calculated with chelated trivalent cations, Tzs with other chelators with bivalent cations. Second-order rate constants for the Tz scaffolds A-L were determined by stopped-flow spectrophotometry (n≥4), monitoring the reaction of representative tetrazines with unsubstituted trans-cyclooctene (TCO) at 25° C. in 1,4-dioxane, and with TCO-PEG4 (modified TCO-5ax-OH, ‘minor-TCO’) in Dulbecco's phosphate buffered saline (DBPS) at 37° C. n≥3.

SMILES	Stability in PBS (degradation) [1]	Blocking effect (ranking) [2]	Shelf stability in PBS, intact ([1]; 2 nmol/mL)	Rate constant (1,4-dioxane, 25° C.) [3]	% Tumor Uptake of [^111In]46 after blocking ([4]; tumor uptake 22 h p.i. normalized to unblocked group (100%))	Blocking effect [4]	Blocking effect ([4]; listed as non-radioactive precursor of [^111In]Q)	Rate constant (DPBS, 37° C.) [5]
O=C(O)CNCc1cc(F)cc(-c2nncnn2)c1 [UB-137, 1-Carboxy-N-(3-fluoro-5-(1,2,4,5-tetrazin-3-yl)benzyl)methanaminium 2,2,2-trifluoroacetate]	did not show degradation	best blocking effect	–	–	–	–	–	–
O=C(O)CN(CC(=O)O)Cc1cc(F)cc(-c2nncnn2)c1 [UB-108, 1-Carboxy-N-(carboxymethyl)-N-(3-fluoro-5-(1,2,4,5-tetrazin-3-yl)benzyl)methanaminium 2,2,2-trifluoroacetate]	did not show degradation	best blocking effect	98%	–	–	–	–	–
O=C(O)CN1CCN(CC(=O)O)CCN(CC(=O)NCCOCCOCCOCCOCCOCCOCCOCCOCCOCCOCCOCCNC(=O)CCCC(=O)Nc2ccc(-c3nnc(-c4ccccn4)nn3)nc2)CCN(CC(=O)O)CC1 [Q, reference compound]	–	–	–	230 M⁻¹ s⁻¹	1%	99%	≥ 99%	73,000 M^−1 s^−1
